≈ marks a conversion by molar mass, not a printed value. Entries after “also recorded” stand apart in the source; their conditions may differ. Read-outs that look alike come from different tables or passages of the source. Square brackets hold non-standard residues; d marks the D form. Peptide text beside a SMILES is read from it. Api = NC1(C(=O)O)CCNCC1; Aib = CC(C)(N)C(=O)O
Tests used:
[1] = tested on: Escherichia coli DH5α; format: cell-based; settings: broth microdilution, 10^4 CFUs per mL, 18 h at 35 °C; MIC = lowest concentration that completely inhibited bacterial growth; final conc. 0.39 to 100
Protocol: (§1) The antimicrobial activities of peptides 1–8 against Gram-positive Staphylococcus aureus, Gram-negative Escherichia coli DH5α, Pseudomonas aeruginosa, and multidrug-resistant P. aeruginosa (MDRP) were evaluated. The minimum inhibitory concentration (MIC) against these bacteria was measured as an indicator of antimicrobial activity, and the results are discussed in Table 2.
(§2) One type of Gram-positive bacteria, S. aureus NBRC 13276, and three Gram-negative bacteria, E. coli DH5α, P. aeruginosa NBRC 13275, and MDRP, were selected for the evaluation of the antimicrobial activity of the synthesized peptides. The selected bacterial strains were obtained from the Biological Resource Center, NITE (NBRC; Tokyo, Japan), and Escherichia coli DH5α cells were purchased from BioDynamics Laboratory, Inc. (Tokyo, Japan). The antimicrobial activities of the tested peptides 1–8 against each stain were examined by the standard broth microdilution method, as previously reported. Briefly, the bacteria were seeded and grown overnight at 37 °C on Agar media for other organisms i (Agar medium) and then collected with the media for other organisms ii (liquid medium), according to the 17th revision of Japanese Pharmacopoeia. Next, 10 μL of the peptide solution per well was added to each well of a sterile 96-well plate, and 90 μL per well of inoculation was mixed with 10^4 CFUs (colony forming units) per mL and added to each well, and the plate was incubated for 18 h at 35 °C.

[2] = tested on: P. aeruginosa NBRC 13275; format: cell-based, Pseudomonas aeruginosa; settings: NBRC 13275, 18 h
Protocol: as §1, §2

[3] = tested on: S. aureus NBRC 13276; format: cell-based, Staphylococcus aureus
Protocol: as §1, §2

[4] = tested on: human red blood cells; experiment: Hemolysis activity against red blood cells; settings: human RBCs in 172 mM Tris-HCl pH 7.6, 30 min at 37 °C, absorbance 535 nm; DMSO = 0%, M-Lycotoxin = 100%; final peptide conc. 100 to 0.39
Protocol: AMPs primarily target microbial membranes, leading to their antimicrobial activity through membrane lysis. However, it is important to consider their potential effects on human cell membranes, as this could raise concerns regarding cytotoxicity. […] Hemolytic activity was assessed by measuring the absorption at 535 nm, which indicates the leakage of red blood cell cytoplasmic contents and hemoglobin.
Human red blood cells (RBCs) were supplied by the Japanese Red Cross Society (Tokyo, Japan). The hemolytic assay of the synthesized peptides was performed as previously reported. Briefly, 5.0 mL of the total erythrocytes were washed three times with 172 mM Tris-HCl buffer (pH = 7.6, wash buffer:WB) and 1.0 mL of precipitated erythrocytes was diluted with 9.0 mL of WB. Then, 0.5 mL of the suspension was diluted in WB, and 50 µL of RBC solution was incubated with 50 µL of each peptide for 30 min at 37 °C (final peptide conc. from 100 to 0.39 μM). The suspensions were then centrifuged at 400 rpm for 5 min. The absorbance of the supernatant was measured at a wavelength of 535 nm. M-Lycotoxin [22], which is a typical hemolytic toxic peptide derived from Wolf spider, was used as a positive control, and the absorbance of the sample from DMSO and M-Lycotoxin treatment was defined as 0 and 100%, respectively.

[5] = PBS without FBS
[6] = in vitro; settings: 50% fetal bovine serum in PBS
[7] = tested on: multidrug-resistant P. aeruginosa (MDRP); format: cell-based, Pseudomonas aeruginosa; settings: multidrug-resistant (MDRP, 18 h)
Protocol: as §1, §2

[8] = tested on: Proteinase K; experiment: 0.002% (v/v) Proteinase K; settings: 37 °C, up to 24 h
[9] = broth microdilution, 10^4 CFUs per mL, 18 h at 35 °C, MIC = lowest concentration that completely inhibited bacterial growth, final conc. 0.39 to 100

CC[C@H](C)[C@H](NC(=O)CN)C(=O)NC1(C(=O)N[C@@H](CCCCN)C(=O)N[C@@H](Cc2ccccc2)C(=O)N[C@@H](CC(C)C)C(=O)N[C@@H](CCCCN)C(=O)N[C@@H](CO)C(=O)NC(C)(C)C(=O)N[C@@H](CCCCN)C(=O)N[C@@H](CCCCN)C(=O)N[C@@H](Cc2ccccc2)C(=O)N[C@H](C(=O)N[C@@H](CCCCN)C(=O)NC(C)(C)C(=O)N[C@@H](Cc2ccccc2)C(=O)N[C@@H](CCCCN)C(N)=O)C(C)C)CCNCC1 [Peptide 2] (H-GI[Api]KFLKS[Aib]KKFVK[Aib]FK-NH2)
MIC, E. Coli DH5α, Gram(−) [1]: 3.125 µM (≈ 6.23 µg/mL) | MIC, P. aeruginosa, Gram(−) [2]: 3.125 µM (≈ 6.23 µg/mL) | MIC, S. aureus, Gram(+) [3, 9]: 12.5 µM (≈ 24.9 µg/mL) | Hemolysis (concentration at which hemolytic activity is exhibited) [4]: 12.5 µM | Stability in PBS [5]: stable in PBS | remaining at 24 h [6]: 70% | residual amount after 24 h proteinase K treatment: > 60%

CC[C@H](C)[C@H](NC(=O)CN)C(=O)N[C@@H](CCCCN)C(=O)NC1(C(=O)N[C@@H](Cc2ccccc2)C(=O)N[C@@H](CC(C)C)C(=O)N[C@@H](CCCCN)C(=O)N[C@@H](CO)C(=O)NC(C)(C)C(=O)N[C@@H](CCCCN)C(=O)N[C@@H](CCCCN)C(=O)N[C@@H](Cc2ccccc2)C(=O)N[C@H](C(=O)N[C@@H](CCCCN)C(=O)NC(C)(C)C(=O)N[C@@H](Cc2ccccc2)C(=O)N[C@@H](CCCCN)C(N)=O)C(C)C)CCNCC1 [Peptide 3] (H-GIK[Api]FLKS[Aib]KKFVK[Aib]FK-NH2)
MIC, E. Coli DH5α, Gram(−) [1]: 3.125 µM (≈ 6.23 µg/mL) | MIC, P. aeruginosa, Gram(−) [2]: 3.125 µM (≈ 6.23 µg/mL) | MIC, S. aureus, Gram(+) ([3]; NBRC 13276, 18 h): 25 µM (≈ 49.8 µg/mL) | Hemolysis (concentration at which hemolytic activity is exhibited) [4]: 25 µM

CC[C@H](C)[C@H](NC(=O)CN)C(=O)N[C@@H](CCCCN)C(=O)N[C@@H](CCCCN)C(=O)N[C@@H](Cc1ccccc1)C(=O)N[C@@H](CC(C)C)C(=O)NC1(C(=O)N[C@@H](CO)C(=O)NC(C)(C)C(=O)N[C@@H](CCCCN)C(=O)N[C@@H](CCCCN)C(=O)N[C@@H](Cc2ccccc2)C(=O)N[C@H](C(=O)N[C@@H](CCCCN)C(=O)NC(C)(C)C(=O)N[C@@H](Cc2ccccc2)C(=O)N[C@@H](CCCCN)C(N)=O)C(C)C)CCNCC1 [Peptide 4] (H-GIKKFL[Api]S[Aib]KKFVK[Aib]FK-NH2)
MIC, E. Coli DH5α, Gram(−) [1]: 1.56 µM (≈ 3.11 µg/mL) | MIC, P. aeruginosa, Gram(−) [2]: 3.125 µM (≈ 6.23 µg/mL) | MIC, MDRP [7]: 6.25 µM (≈ 12.5 µg/mL) | MIC, S. aureus, Gram(+) [3, 9]: 12.5 µM (≈ 24.9 µg/mL) | Hemolysis (concentration at which hemolytic activity is exhibited) [4]: 12.5 µM

CC[C@H](C)[C@H](NC(=O)CN)C(=O)N[C@@H](CCCCN)C(=O)N[C@@H](CCCCN)C(=O)N[C@@H](Cc1ccccc1)C(=O)N[C@@H](CC(C)C)C(=O)N[C@@H](CCCCN)C(=O)N[C@@H](CO)C(=O)NC(C)(C)C(=O)NC1(C(=O)N[C@@H](CCCCN)C(=O)N[C@@H](Cc2ccccc2)C(=O)N[C@H](C(=O)N[C@@H](CCCCN)C(=O)NC(C)(C)C(=O)N[C@@H](Cc2ccccc2)C(=O)N[C@@H](CCCCN)C(N)=O)C(C)C)CCNCC1 [Peptide 5] (H-GIKKFLKS[Aib][Api]KFVK[Aib]FK-NH2)
MIC, E. Coli DH5α, Gram(−) [1]: 1.56 µM (≈ 3.11 µg/mL) | MIC, P. aeruginosa, Gram(−) [2]: 3.125 µM (≈ 6.23 µg/mL) | MIC, MDRP [7]: 6.25 µM (≈ 12.5 µg/mL) | MIC, S. aureus, Gram(+) ([3]; NBRC 13276, 18 h): 25 µM (≈ 49.8 µg/mL) | Hemolysis (concentration at which hemolytic activity is exhibited) [4]: 50 µM

CC[C@H](C)[C@H](NC(=O)CN)C(=O)N[C@@H](CCCCN)C(=O)N[C@@H](CCCCN)C(=O)N[C@@H](Cc1ccccc1)C(=O)N[C@@H](CC(C)C)C(=O)N[C@@H](CCCCN)C(=O)N[C@@H](CO)C(=O)NC(C)(C)C(=O)N[C@@H](CCCCN)C(=O)NC1(C(=O)N[C@@H](Cc2ccccc2)C(=O)N[C@H](C(=O)N[C@@H](CCCCN)C(=O)NC(C)(C)C(=O)N[C@@H](Cc2ccccc2)C(=O)N[C@@H](CCCCN)C(N)=O)C(C)C)CCNCC1 [Peptide 6] (H-GIKKFLKS[Aib]K[Api]FVK[Aib]FK-NH2)
MIC, E. Coli DH5α, Gram(−) [1]: 1.56 µM (≈ 3.11 µg/mL) | MIC, P. aeruginosa, Gram(−) [2]: 3.125 µM (≈ 6.23 µg/mL) | MIC, MDRP [7]: 6.25 µM (≈ 12.5 µg/mL) | MIC, S. aureus, Gram(+) ([3]; NBRC 13276, 18 h): 12.5 µM (≈ 24.9 µg/mL) | Hemolysis (concentration at which hemolytic activity is exhibited) [4]: 50 µM

CC[C@H](C)[C@H](NC(=O)CN)C(=O)N[C@@H](CCCCN)C(=O)N[C@@H](CCCCN)C(=O)N[C@@H](Cc1ccccc1)C(=O)N[C@@H](CC(C)C)C(=O)N[C@@H](CCCCN)C(=O)N[C@@H](CO)C(=O)NC(C)(C)C(=O)N[C@@H](CCCCN)C(=O)N[C@@H](CCCCN)C(=O)N[C@@H](Cc1ccccc1)C(=O)N[C@H](C(=O)NC1(C(=O)NC(C)(C)C(=O)N[C@@H](Cc2ccccc2)C(=O)N[C@@H](CCCCN)C(N)=O)CCNCC1)C(C)C [Peptide 7] (H-GIKKFLKS[Aib]KKFV[Api][Aib]FK-NH2)
MIC, E. Coli DH5α, Gram(−) [1]: 1.56 µM (≈ 3.11 µg/mL) | MIC, P. aeruginosa, Gram(−) [2]: 3.125 µM (≈ 6.23 µg/mL) | MIC, MDRP [7]: 6.25 µM (≈ 12.5 µg/mL) | MIC, S. aureus, Gram(+) [3, 9]: 12.5 µM (≈ 24.9 µg/mL) | Hemolysis (concentration at which hemolytic activity is exhibited) [4]: 12.5 µM

CC[C@H](C)[C@H](NC(=O)CN)C(=O)N[C@@H](CCCCN)C(=O)N[C@@H](CCCCN)C(=O)N[C@@H](Cc1ccccc1)C(=O)N[C@@H](CC(C)C)C(=O)N[C@@H](CCCCN)C(=O)N[C@@H](CO)C(=O)NC(C)(C)C(=O)N[C@@H](CCCCN)C(=O)N[C@@H](CCCCN)C(=O)N[C@@H](Cc1ccccc1)C(=O)N[C@H](C(=O)N[C@@H](CCCCN)C(=O)NC(C)(C)C(=O)N[C@@H](Cc1ccccc1)C(=O)NC1(C(N)=O)CCNCC1)C(C)C [Peptide 8] (H-GIKKFLKS[Aib]KKFVK[Aib]F[Api]-NH2)
MIC, E. Coli DH5α, Gram(−) [1]: 3.125 µM (≈ 6.23 µg/mL) | MIC, P. aeruginosa, Gram(−) [2]: 3.125 µM (≈ 6.23 µg/mL) | MIC, MDRP [7]: 12.5 µM (≈ 24.9 µg/mL) | MIC, S. aureus, Gram(+) ([3]; NBRC 13276, 18 h): 12.5 µM (≈ 24.9 µg/mL) | Hemolysis (concentration at which hemolytic activity is exhibited) [4]: 100 µM

H-GIKKFLKS[Aib]KKFVK[Aib]FK-NH2
cleaved bond [8]: Phe5-Leu6, 24 h; also recorded: Phe16-Lys17

H-Gly-Ile-Api-Lys-Phe-Leu-Lys-Ser-Aib-Lys-Lys-Phe-Val-Lys-Aib-Phe-Lys-NH2
cleaved bond [8]: Phe16-Lys17, 24 h

H-Gly-Ile-Lys-Api-Phe-Leu-Lys-Ser-Aib-Lys-Lys-Phe-Val-Lys-Aib-Phe-Lys-NH2
cleaved bond [8]: Phe16-Lys17, 24 h

H-Gly-Ile-Lys-Lys-Phe-Leu-Api-Ser-Aib-Lys-Lys-Phe-Val-Lys-Aib-Phe-Lys-NH2
cleaved bond [8]: Phe16-Lys17, 24 h

Source: article PMC10451648 (Antibiotics, 2023)
